Source: ChEMBL document CHEMBL1201862, “PubChem BioAssay data set” (2004)
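Each compound was tested at five concentrations against cells in 96-well plates for 48 hours. Abbreviation: GI50, concentration required for 50% inhibition of growth.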 Activity calls are given as the source filed them. No stated cut-off is given here; in the data, active = GI50 up to about 1.1 µM and inactive = higher.

Tests used:
Test in all cases: DTP human tumour cell line panel, 48 h
SNB-19 = system: SNB-19
SF-268 = system: SF-268
SK-MEL-28 = system: SK-MEL-28
UACC-257 = system: UACC-257
Malme-3M = system: Malme-3M
CCRF-CEM = system: CCRF-CEM
MDA-MB-435 = system: MDA-MB-435
SF-295 = system: SF-295
CAKI-1 = system: CAKI-1
OVCAR-4 = system: OVCAR-4
OVCAR-5 = system: OVCAR-5
MOLT-4 = system: MOLT-4
RPMI-8226 = system: RPMI-8226
Hs-578T = system: Hs-578T
MCF7 = system: MCF7
786-0 = system: 786-0
NCI-H460 = system: NCI-H460
M14 = system: M14
SK-OV-3 = system: SK-OV-3

Measured: GI50

Oc1ccc([I+]c2ccccc2)cc1O
inactive: SNB-19 26.2 µM | SF-268 42.8 µM | SK-MEL-28 61.9 µM | UACC-257 > 100 µM | Malme-3M 28.8 µM | CCRF-CEM 9.46 µM | MDA-MB-435 23 µM | SF-295 73.8 µM | CAKI-1 > 100 µM | OVCAR-4 25.8 µM | OVCAR-5 59.6 µM | MOLT-4 21.9 µM | RPMI-8226 12 µM | Hs-578T 48.6 µM | MCF7 > 10 µM | 786-0 65 µM | NCI-H460 23.3 µM

Nc1ncnc2c1ncn2C1OC(CO)C(O)C(O)C1O (stereo not drawn)
inactive: SNB-19 > 100 µM | SF-268 > 100 µM | SK-MEL-28 > 100 µM | UACC-257 > 100 µM | M14 > 100 µM | Malme-3M > 100 µM | CCRF-CEM > 100 µM | MDA-MB-435 > 100 µM | SF-295 > 100 µM | CAKI-1 > 100 µM | OVCAR-4 > 100 µM | OVCAR-5 > 100 µM | MOLT-4 > 100 µM | RPMI-8226 > 100 µM | Hs-578T > 100 µM | MCF7 > 100 µM | 786-0 > 100 µM | NCI-H460 > 100 µM

O=c1ccc2c(Cl)cccc2o1
inactive: SNB-19 > 100 µM | SF-268 > 100 µM | SK-MEL-28 > 100 µM | UACC-257 > 100 µM | M14 > 100 µM | Malme-3M > 100 µM | CCRF-CEM > 100 µM | MDA-MB-435 > 100 µM | SF-295 > 100 µM | CAKI-1 > 100 µM | OVCAR-4 > 100 µM | OVCAR-5 > 100 µM | MOLT-4 > 100 µM | RPMI-8226 > 100 µM | Hs-578T 75.5 µM | MCF7 > 100 µM | 786-0 > 10 µM | NCI-H460 > 100 µM

O=C(O)C(Cc1c[nH]cn1)N1C(=O)c2ccccc2C1=O (stereo not drawn)
inactive: SNB-19 > 100 µM | SF-268 > 100 µM | SK-MEL-28 > 100 µM | UACC-257 > 100 µM | M14 > 100 µM | Malme-3M 18.9 µM | MDA-MB-435 > 100 µM | SF-295 30 µM | CAKI-1 > 100 µM | OVCAR-4 > 100 µM | OVCAR-5 > 100 µM | MOLT-4 > 100 µM | RPMI-8226 > 100 µM | Hs-578T > 100 µM | MCF7 > 100 µM | 786-0 > 100 µM | NCI-H460 > 100 µM

Cc1ccc(S(=O)(=O)N2CCCSCCSCCCN(S(=O)(=O)c3ccc(C)cc3)CC2)cc1
inactive: SNB-19 > 100 µM | SF-268 > 100 µM | SK-MEL-28 > 100 µM | UACC-257 > 100 µM | M14 > 100 µM | SK-OV-3 > 100 µM | MDA-MB-435 > 100 µM | SF-295 > 100 µM | OVCAR-4 > 100 µM | OVCAR-5 > 100 µM | MOLT-4 > 100 µM | RPMI-8226 > 100 µM | Hs-578T > 100 µM | MCF7 > 100 µM | 786-0 > 100 µM | NCI-H460 > 100 µM

CC1CCOc2ccc(cc2)/C=N\c2ccc(cc2)CCc2ccc(cc2)/N=C\c2ccc(cc2)OCC1
inactive: SNB-19 > 100 µM | SF-268 > 100 µM | SK-MEL-28 > 100 µM | UACC-257 > 100 µM | M14 > 100 µM | Malme-3M > 100 µM | CCRF-CEM 29.8 µM | MDA-MB-435 > 100 µM | SF-295 70.3 µM | CAKI-1 > 100 µM | OVCAR-4 > 100 µM | OVCAR-5 > 100 µM | MOLT-4 > 100 µM | RPMI-8226 > 100 µM | Hs-578T > 100 µM | MCF7 > 100 µM | 786-0 > 100 µM | NCI-H460 > 100 µM

COc1cc(COC(=O)N[C@H](C(=O)O)C(C)(C)C)c([N+](=O)[O-])cc1OC
inactive: SNB-19 > 100 µM | SF-268 > 100 µM | SK-MEL-28 > 100 µM | UACC-257 > 100 µM | M14 > 100 µM | Malme-3M > 100 µM | SK-OV-3 > 100 µM | CCRF-CEM > 100 µM | MDA-MB-435 > 100 µM | SF-295 > 100 µM | OVCAR-5 > 100 µM | MOLT-4 > 100 µM | RPMI-8226 > 100 µM | Hs-578T > 100 µM | MCF7 > 100 µM | 786-0 > 100 µM | NCI-H460 > 100 µM

Nc1ccc(S2(c3ccc(N)cc3)C=C(c3ccccc3)C(c3ccccc3)=C2)cc1
inactive: SNB-19 > 45 µM | SF-268 > 44.5 µM | SK-MEL-28 > 31.1 µM | UACC-257 > 54.5 µM | M14 > 72.8 µM | Malme-3M > 100 µM | SK-OV-3 > 26.9 µM | CCRF-CEM > 100 µM | MDA-MB-435 > 35.9 µM | SF-295 16.4 µM | OVCAR-4 11 µM | OVCAR-5 > 65.6 µM | MOLT-4 > 73.8 µM | RPMI-8226 > 64 µM | Hs-578T > 100 µM | MCF7 > 32.1 µM | 786-0 24 µM | NCI-H460 > 22.4 µM

C(=N\Nc1nnc(-c2nnc(N/N=C/c3ccccc3)o2)o1)/c1ccccc1
inactive: SNB-19 > 10 µM | SF-268 > 10 µM | SK-MEL-28 > 10 µM | UACC-257 > 10 µM | M14 > 10 µM | Malme-3M > 10 µM | CCRF-CEM > 10 µM | MDA-MB-435 > 10 µM | SF-295 > 10 µM | CAKI-1 > 10 µM | OVCAR-4 > 10 µM | OVCAR-5 > 10 µM | MOLT-4 > 10 µM | RPMI-8226 > 10 µM | Hs-578T 6.19 µM | MCF7 > 10 µM | 786-0 > 10 µM | NCI-H460 > 10 µM

COC1(O)C(=O)c2ccccc2OC1(OC)c1ccccc1 (stereo not drawn)
inactive: SNB-19 > 100 µM | SF-268 > 100 µM | SK-MEL-28 > 100 µM | UACC-257 > 100 µM | M14 > 100 µM | Malme-3M > 100 µM | CCRF-CEM 46.8 µM | MDA-MB-435 > 100 µM | SF-295 > 100 µM | CAKI-1 > 100 µM | OVCAR-4 > 100 µM | OVCAR-5 > 100 µM | MOLT-4 75.2 µM | RPMI-8226 > 100 µM | Hs-578T > 100 µM | MCF7 48.9 µM | 786-0 > 100 µM | NCI-H460 40.4 µM

CCCCN/N=N/c1cn(C2OC(CO)C(O)C2O)c(=O)[nH]c1=O (stereo not drawn)
inactive: SNB-19 > 100 µM | SF-268 > 100 µM | SK-MEL-28 > 100 µM | UACC-257 > 100 µM | M14 > 100 µM | Malme-3M > 100 µM | SK-OV-3 > 100 µM | CCRF-CEM > 100 µM | MDA-MB-435 > 100 µM | SF-295 > 100 µM | CAKI-1 > 100 µM | OVCAR-4 > 100 µM | OVCAR-5 > 100 µM | MOLT-4 > 100 µM | Hs-578T > 100 µM | MCF7 > 100 µM | 786-0 > 100 µM | NCI-H460 > 100 µM
